These results are taken from article PMC8763936 (Investigational New Drugs, 2021).

Molecules are shown by their SMILES. Where two headings read alike, the source gives them in different places.

Series [1] in a line: Study 2: midazolam pharmacokinetics alone or with single and multiple dose entrectinib. An excerpt:
Following completion of this part of the study, subjects could continue in an expanded access portion of the study which is not discussed here.

The next series is described as follows: clinical. To be noted: human, oral.
The next series deals with CYP3A4/5. Description: Effect of CYP-selective inhibitors on metabolism of entrectinib by pooled human liver microsomes. Format: in vitro ADME.
The next series deals with CYP2D6 (Homo sapiens, UniProt P10635). The description is as above. To be noted: inhibitor 1 µM, 1 µM entrectinib.
Where [2] appears, read: Effect of Multiple Dose Entrectinib.
The mark [3] stands for this setting: Effect of Single Dose Entrectinib.
Setting [4] is: Midazolam alone, geometric mean (geometric CV).
[5] abbreviates: Midazolam with multiple dose entrectinib 600 mg/day, geometric mean (geometric CV).
Where [6] appears, read: Midazolam with multiple dose entrectinib, geometric mean (geometric CV).
[7] abbreviates: Midazolam with multiple dose entrectinib, median (minimum, maximum).
[8] abbreviates: Midazolam with single dose entrectinib 600 mg, geometric mean (geometric CV).
Where [9] appears, read: Midazolam with single dose entrectinib, geometric mean (geometric CV).
[10] abbreviates: Digoxin alone, geometric mean (geometric CV).
Where [11] appears, read: digoxin with entrectinib vs alone.
The mark [12] stands for this setting: single dose entrectinib 600 mg vs digoxin alone.

Sequence of CYP2D6 (P10635 whole entry): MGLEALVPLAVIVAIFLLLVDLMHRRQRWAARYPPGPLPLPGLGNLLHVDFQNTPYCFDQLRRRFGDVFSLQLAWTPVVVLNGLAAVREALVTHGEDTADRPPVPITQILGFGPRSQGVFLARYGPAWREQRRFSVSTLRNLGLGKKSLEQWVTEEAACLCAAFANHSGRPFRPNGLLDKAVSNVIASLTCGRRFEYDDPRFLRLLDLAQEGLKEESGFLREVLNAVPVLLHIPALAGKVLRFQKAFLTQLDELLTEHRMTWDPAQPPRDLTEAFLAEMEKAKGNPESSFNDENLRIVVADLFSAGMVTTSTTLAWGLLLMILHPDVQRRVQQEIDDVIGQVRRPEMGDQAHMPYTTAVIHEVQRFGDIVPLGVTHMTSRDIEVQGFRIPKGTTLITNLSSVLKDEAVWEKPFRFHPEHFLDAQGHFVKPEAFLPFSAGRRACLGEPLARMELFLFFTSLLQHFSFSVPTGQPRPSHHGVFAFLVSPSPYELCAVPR

Usually Cmax stands for the peak of the concentration-time curve. Regarding `OCc1ncc2n1-c1ccc(Cl)cc1C(c1ccccc1F)=NC2` [1’-hydroxymidazolam], the “Ratio of adjusted geometric means (90% Confidence Intervals), AUCinf” value in series [1] (setting [2]) is recorded as 0.89 (0.70, 1.12); in series [1] (setting [3]) it was 0.96 (0.83, 1.10). In addition, the “Ratio of adjusted geometric means (90% Confidence Intervals), Cmax” value in series [1] (setting [2]) is 0.49 (0.36, 0.67); in series [1] (setting [3]) it was 0.62 (0.50, 0.76). The Cmax in series [1] (setting [4]) is 6.57 nM; in series [1] (setting [5]), 3.51 nM; in series [1] (setting [8]), 4.21 nM. In addition, the t1/2 in series [1] (setting [4]) is 3.71 (81%) h; in series [1] (setting [6]), 5.37 (75%) h; in series [1] (setting [9]) it was 4.56 (49%) h. Further, the Tmax is 0.5 (0.25, 1.00) h in series [1] (Midazolam alone, median (minimum, maximum)); 0.75 (0.5, 5.97) h in series [1] (setting [7]); 1.0 (0.48, 23.6) h in series [1] (Midazolam with single dose entrectinib, median (minimum, maximum)). The AUCinf in series [1] (Midazolam alone, single 7.5 mg midazolam dose (title), subjects with advanced solid tumors, geometric mean (geometric CV)) is 14.9 (60%) nM•h; in series [1] (setting [5]), 14.0 (42%) nM•h; in series [1] (setting [8]), 14.4 (52%) nM•h. Besides, in series [1] (coadministration with multiple-dose entrectinib vs midazolam alone), the “metabolic ratio of metabolite to parent for AUCinf and Cmax, point estimates” value was 59% to 64%. Also, the “decrease of 1’-hydroxymidazolam metabolite-to-parent ratio” value in series [1] (multiple oral doses of entrectinib at steady-state) was 41%.

The AUC(0-inf) is the area under the concentration-time curve extrapolated to infinity. Usually half-life stands for the time in which the quantity being followed falls by half. The low end stands for fast loss, the high end for slow loss. Consider `C[C@H]1O[C@@H](O[C@H]2[C@@H](O)C[C@H](O[C@H]3[C@@H](O)C[C@H](O[C@H]4CC[C@@]5(C)[C@H](CC[C@@H]6[C@@H]5C[C@@H](O)[C@]5(C)[C@@H](C7=CC(=O)OC7)CC[C@]65O)C4)O[C@@H]3C)O[C@@H]2C)C[C@H](O)[C@@H]1O` [Digoxin], for which, in “clinical” (plasma, 75 mg), the total exposure AUC(0-inf) stood at 0.0342 µM·h. In “clinical” (plasma, 600 mg), the area under the curve AUC(0-inf) is 0.0404 µM·h, the highest level (Cmax) was 2.52 nM, the Tmax was 2 h and the half-life was 38.4 h. In the series “clinical” (urine, 600 mg), this compound came in with a CL renal of 123 mL/min. Moreover, under setting [10], the Cmax is 1.97 nM; the “fe, percent of dose excreted unchanged in urine” value was 40.2 (13%); the t1/2 was 35.9 (15%) h. Further, the “fe, percent of dose excreted unchanged in urine” value (Digoxin alone, geometric mean (geometric CV), listed as digoxin) amounted to 40%. Also, the Tmax (Digoxin alone, median (minimum, maximum)) is reported as 1.0 (0.5, 1.0) h. The CLR (Digoxin alone, renal clearance, geometric mean (geometric CV)) is on record as 130 (16%) mL/min. Further, the “fe, percent of dose excreted unchanged in urine” value (Digoxin with single 600 mg entrectinib, geometric mean (geometric CV)) is reported as 44.0 (14%). The “fe, percent of dose excreted unchanged in urine” value (Digoxin with single 600 mg entrectinib, geometric mean (geometric CV), listed as digoxin) amounted to 44%. Under setting [11], the “Ratio of adjusted geometric means (90% Confidence Intervals), AUCinf” value was 1.18 (1.06, 1.32); the “Ratio of adjusted geometric means (90% Confidence Intervals), CLR” value is on record as 0.95 (0.91, 0.98); the “Ratio of adjusted geometric means (90% Confidence Intervals), Cmax” value was 1.28 (0.98, 1.67). Also, under “exploratory analysis, 90% CI: 90.9%, 98.4%”, the “geometric mean ratio of CLR with and without entrectinib” value was determined as 94.6%. Also, where the note is “single 600 mg dose of entrectinib coadministered with digoxin”, the Tmax later entry is reported as “approximately 1 h”. Besides, under setting [12], the “increase of AUCinf” value is given as 18% and the “increase of Cmax” value is listed as 28%. The “increase in digoxin exposure” value (single oral dose of entrectinib coadministered) is 20–30%.

In general, inhibition refers to the drop in the measured response relative to a control, in per cent. Read a low inhibition as a response near the control. Take `CC(=O)N1CCN(c2ccc(OCC3COC(Cn4ccnc4)(c4ccc(Cl)cc4Cl)O3)cc2)CC1` (stereo not drawn) [Ketoconazole]: the “inhibition of entrectinib metabolism depending on the metabolite formed” value in the series with CYP3A4/5 (human liver microsomes) is recorded as 50–80%. The compound further returned an inhibition at 1 µM in the series on CYP3A4/5 (human, pooled human liver microsomes, probe entrectinib (metabolism to M5)) of 82 ± 3%. In addition, in the series on CYP3A4/5 (inhibitor 1 µM, 1 µM entrectinib, pooled human liver microsomes), the “Effect on Formation of other Entrectinib Metabolites” value was “+ + + (> 50% inhibition of multiple metabolites)”.

For the compound `Cc1ncc2n1-c1ccc(Cl)cc1C(c1ccccc1F)=NC2` [Midazolam], the t1/2 in series [1] (setting [6]) is given as 6.4 (68%) h; in series [1] (setting [9]) it was 5.33 (44%) h. For the same compound, the Tmax in series [1] (setting [7]) was 0.50 (0, 1.05) h; in series [1] (human, plasma, oral, 7.5 mg), 0.49 h. The half-life in series [1] (human, plasma, oral) is 8.13 h; in series [1] (human, plasma, oral, 7.5 mg) it was 5.2 h. Moreover, the peak concentration (Cmax) in series [1] (human, plasma, oral, 7.5 mg) stood at 19 nM; in series [1] (human, plasma, oral, 600 mg), 12.9 nM. For the same compound, the AUC(0-inf) in series [1] (human, plasma, oral, 600 mg) is 0.0437 µM·h. Further, the “mean t1/2” value in series [1] (midazolam with a single dose of entrectinib) is 5.73 h.

On to `C=C[C@H]1C[N@@]2CC[C@H]1C[C@@H]2[C@@H](O)c1ccnc2ccc(OC)cc12` [Quinidine], for which the “Effect on Formation of other Entrectinib Metabolites” value at CYP2D6 is “+ (> 20% inhibition of 1 metabolite)”.
